Experiment [1] deals with MOLM-13 cells. The experiment can be described thus: Cell viability assay (CellTiter-Glo) in MOLM-13 cells, alone or with gilteritinib. Type of experiment: cell-based. To be noted: Homo sapiens, MOLM-13, 72 h, MOLM-13 cells, three days, CellTiter-Glo.
In experiment [2] the test system is MV4;11 cells. The experiment can be described thus: Cell viability assay (CellTiter-Glo) in MV4;11 cells, alone or with gilteritinib. It is filed as cell-based. To be noted: Homo sapiens, MV4-11, 72 h, MV4;11 cells, three days, CellTiter-Glo, read-out: MV4.
The mark [3] stands for this setting: compound alone (without gilteritinib), read-out: MOLM-13 IC50.
[4] abbreviates: with gilteritinib 20 nM, read-out: MOLM-13 IC50 gilteritinib.
Setting [5] is: compound alone (without gilteritinib), 11 IC50.
Where [6] appears, read: with gilteritinib 10 nM, 11 IC50 gilteritinib.

IC50 data for 20 molecules are collected here from patent publication US20240050428A1 (Cullgen (Shanghai), Inc., priority 2020, published 2024).

SMILES strings stand for the structures. Where two headings read alike, the source gives them in different places.

For the molecule `O=C(Cc1ccc(N2CCC(n3cc(-c4cnc5ccccc5n4)cn3)CC2)cc1)NCc1ccc2c(c1)CN(C1CCC(=O)NC1=O)C2=O` (centres unmarked) [GS-122, N-((2-(2,6-dioxopiperidin-3-yl)-1-oxoisoindolin-5-yl)methyl)-2-(4-(4-(4-(quinoxalin-2-yl)-1H-pyrazol-1-yl)piperidin-1-yl)phenyl)acetamide], the IC50 in experiment [1] (setting [3]), in experiment [1] (setting [4]), in experiment [2] (setting [5]) and in experiment [2] (setting [6]) was under 10 nM throughout.

In the case of `O=C1CCC(N2C(=O)c3ccc(NCCCCCC4(N5CCC(n6cc(-c7cnc8ccccc8n7)cn6)CC5)CC4)cc3C2=O)C(=O)N1` (centres unmarked) [GS-123, 2-(2,6-Dioxopiperidin-3-yl)-5-((5-(1-(4-(4-(quinoxalin-2-yl)-1H-pyrazol-1-yl)piperidin-1-yl)cyclopropyl)pentyl)amino)isoindoline-1,3-dione], the IC50 in experiment [1] (setting [3]) was over 1000 nM; in experiment [1] (setting [4]), under 10 nM; in experiment [2] (setting [5]), 100 to 1000 nM; in experiment [2] (setting [6]), 100 to 1000 nM.

Consider `O=C1CCC(N2C(=O)c3ccc(NCCCCC4(N5CCC(n6cc(-c7cnc8ccccc8n7)cn6)CC5)CC4)cc3C2=O)C(=O)N1` (centres unmarked) [GS-124, 2-(2,6-Dioxopiperidin-3-yl)-5-((4-(1-(4-(4-(quinoxalin-2-yl)-1H-pyrazol-1-yl)piperidin-1-yl)cyclopropyl)butyl)amino)isoindoline-1,3-dione], for which the IC50 in experiment [1] (setting [3]) was over 1000 nM; in experiment [1] (setting [4]), 10 to 100 nM; in experiment [2] (setting [5]) it was over 1000 nM; in experiment [2] (setting [6]), over 1000 nM.

Consider `O=C1CCC(N2Cc3c(NC4CCCC(Nc5nccc(N6CCC(n7cc(-c8cnc9ccccc9n8)cn7)CC6)n5)C4)cccc3C2=O)C(=O)N1` (centres unmarked) [GS-125, 3-(1-Oxo-4-((3-((4-(4-(4-(quinoxalin-2-yl)-1H-pyrazol-1-yl)piperidin-1-yl)pyrimidin-2-yl)amino)cyclohexyl)amino)isoindolin-2-yl)piperidine-2,6-dione], for which the IC50 in experiment [1] (setting [3]) is over 1000 nM; in experiment [1] (setting [4]), over 1000 nM; in experiment [2] (setting [5]) it was 100 to 1000 nM; in experiment [2] (setting [6]), 100 to 1000 nM.

For the molecule `O=C1CCC(N2Cc3cc(NCCCCCC4(N5CCC(n6cc(-c7cnc8ccccc8n7)cn6)CC5)CC4)ccc3C2=O)C(=O)N1` (centres unmarked) [GS-126, 3-(1-Oxo-5-((5-(1-(4-(4-(quinoxalin-2-yl)-1H-pyrazol-1-yl)piperidin-1-yl)cyclopropyl)pentyl)amino)isoindolin-2-yl)piperidine-2,6-dione], the IC50 in experiment [1] (setting [3]) is over 1000 nM; in experiment [1] (setting [4]), over 1000 nM; in experiment [2] (setting [5]), 100 to 1000 nM; in experiment [2] (setting [6]), over 1000 nM.

With `CC(CCCCCCc1ccc2c(c1)C(=O)N(C1CCC(=O)NC1=O)C2)n1cc(-c2cnc3ccccc3n2)cn1` (centres unmarked) [GS-127, 3-(1-Oxo-6-(7-(4-(quinoxalin-2-yl)-1H-pyrazol-1-yl)octyl)isoindolin-2-yl)piperidine-2,6-dione], the IC50 in experiment [1] (setting [3]) is over 1000 nM; in experiment [1] (setting [4]), 100 to 1000 nM; in experiment [2] (setting [5]) it was over 1000 nM; in experiment [2] (setting [6]) it was 100 to 1000 nM.

In the case of `O=C1CCC(N2Cc3ccc(NCCCCCCn4cc(-c5cnc6ccccc6n5)cn4)cc3C2=O)C(=O)N1` (centres unmarked) [GS-128, 3-(1-Oxo-6-((6-(4-(quinoxalin-2-yl)-1H-pyrazol-1-yl)hexyl)amino)isoindolin-2-) piperidine-2,6-dione], the IC50 in experiment [1] (setting [3]), in experiment [1] (setting [4]), in experiment [2] (setting [5]) and in experiment [2] (setting [6]) was over 1000 nM throughout.

As to `O=C1CCC(N2C(=O)c3ccc(NCCCCS(=O)(=O)N4CCC(n5cc(-c6cnc7ccccc7n6)cn5)CC4)cc3C2=O)C(=O)N1` (centres unmarked) [GS-129, 2-(2,6-Dioxopiperidin-3-yl)-5-((4-((4-(4-(quinoxalin-2-yl)-1H-pyrazol-1-yl)piperidin-1-yl)sulfonyl)butyl)amino)isoindoline-1,3-dione], the IC50 in experiment [1] (setting [3]) is over 1000 nM; in experiment [1] (setting [4]), 100 to 1000 nM; in experiment [2] (setting [5]) it was over 1000 nM; in experiment [2] (setting [6]), 100 to 1000 nM.

For the molecule `O=C(CC12CC(N3CCC(n4cc(-c5cnc6ccccc6n5)cn4)CC3)(C1)C2)NCc1ccc2c(c1)CN(C1CCC(=O)NC1=O)C2=O` (centres unmarked) [GS-130, N-((2-(2,6-dioxopiperidin-3-yl)-1-oxoisoindolin-5-yl)methyl)-2-(3-(4-(4-(quinoxalin-2-yl)-1H-pyrazol-1-yl)piperidin-1-yl)bicyclo[1.1.1]pentan-1-yl)acetamide], the IC50 in experiment [1] (setting [3]), in experiment [1] (setting [4]), in experiment [2] (setting [5]) and in experiment [2] (setting [6]) was over 1000 nM in each case.

As for `O=C1CCC(N2Cc3ccc(NCCCC4CC(n5cc(-c6cnc7ccccc7n6)cn5)C4)cc3C2=O)C(=O)N1` (centres unmarked) [GS-131, 3-(1-Oxo-6-((3-(3-(4-(quinoxalin-2-yl)-1H-pyrazol-1-yl)cyclobutyl)propyl)amino)isoindolin-2-yl)piperidine-2,6-dione], the IC50 in experiment [1] (setting [3]), in experiment [1] (setting [4]), in experiment [2] (setting [5]) and in experiment [2] (setting [6]) was over 1000 nM throughout.

As to `O=C1CCC(N2C(=O)c3ccc(NCCCNC(=O)N4CCC(n5cc(-c6cnc7ccccc7n6)cn5)CC4)cc3C2=O)C(=O)N1` (centres unmarked) [GS-132, N-(3-((2-(2,6-dioxopiperidin-3-yl)-1,3-dioxoisoindolin-5-yl)amino)propyl)-4-(4-(quinoxalin-2-yl)-1H-pyrazol-1-yl)piperidine-1-carboxamide], the IC50 in experiment [1] (setting [3]), in experiment [1] (setting [4]), in experiment [2] (setting [5]) and in experiment [2] (setting [6]) was under 10 nM throughout.

Turning to `O=C1CCC(N2Cc3c(NC4CCCN(Cc5cccc(N6CCC(n7cc(-c8cnc9ccccc9n8)cn7)CC6)c5)C4)cccc3C2=O)C(=O)N1` (centres unmarked) [GS-133, 3-(1-Oxo-4-((1-(3-(4-(4-(quinoxalin-2-yl)-1H-pyrazol-1-yl)piperidin-1-yl)benzyl)piperidin-3-yl)amino)isoindolin-2-yl)piperidine-2,6-dione], the IC50 in experiment [1] (setting [3]), in experiment [1] (setting [4]), in experiment [2] (setting [5]) and in experiment [2] (setting [6]) was over 1000 nM in each case.

As for `Cc1nc2ccccc2nc1-c1cnn(CCCCCCCc2ccc3c(c2)C(=O)N(C2CCC(=O)NC2=O)C3)c1` (centres unmarked) [GS-134, 3-(6-(7-(4-(3-Methylquinoxalin-2-yl)-1H-pyrazol-1-yl)heptyl)-1-oxoisoindolin-2-yl)piperidine-2,6-dione], the IC50 was 10 to 100 nM in experiment [1] (setting [3]), under 10 nM in experiment [1] (setting [4]), 10 to 100 nM in experiment [2] (setting [5]) and 10 to 100 nM in experiment [2] (setting [6]).

Take `O=C1CCC(N2Cc3c(NC4CCCC(Nc5cccc(N6CCC(c7cccc(Cl)c7)CC6)c5)C4)cccc3C2=O)C(=O)N1` (centres unmarked) [GS-135, 3-(4-((3-((3-(4-(3-Chlorophenyl)piperidin-1-yl)phenyl)amino)cyclohexyl)amino)-1-oxoisoindolin-2-yl)piperidine-2,6-dione]: the IC50 was over 1000 nM in experiment [1] (setting [3]), over 1000 nM in experiment [1] (setting [4]), over 1000 nM in experiment [2] (setting [5]) and 100 to 1000 nM in experiment [2] (setting [6]).

`O=C1CCC(N2C(=O)c3ccc(NCCCCC(=O)N4C5CCC4CC(n4cc(-c6cnc7ccccc7n6)cn4)C5)cc3C2=O)C(=O)N1` (centres unmarked) [GS-136, 2-(2,6-Dioxopiperidin-3-yl)-5-((5-oxo-5-(3-(4-(quinoxalin-2-yl)-1H-pyrazol-1-yl)-8-azabicyclo[3.2.1]octan-8-yl)pentyl)amino)isoindoline-1,3-dione]: the IC50 in experiment [1] (setting [3]), in experiment [1] (setting [4]), in experiment [2] (setting [5]) and in experiment [2] (setting [6]) was over 1000 nM in each case.

For `O=C1CCC(N2Cc3cc(NCCCCC4(N5CCC(n6cc(-c7cnc8ccccc8n7)cn6)CC5)CC4)ccc3C2=O)C(=O)N1` (centres unmarked) [GS-137, 3-(1-Oxo-5-((4-(1-(4-(4-(quinoxalin-2-yl)-1H-pyrazol-1-yl)piperidin-1-yl)cyclopropyl)butyl)amino)isoindolin-2-yl)piperidine-2,6-dione], the IC50 in experiment [1] (setting [3]), in experiment [1] (setting [4]), in experiment [2] (setting [5]) and in experiment [2] (setting [6]) was over 1000 nM each time.

`CC(CCCNc1ccc2c(c1)C(=O)N(C1CCC(=O)NC1=O)C2=O)C(=O)N1CCC(n2cc(-c3cnc4ccccc4n3)cn2)CC1` (centres unmarked) [GS-138, 2-(2,6-Dioxopiperidin-3-yl)-5-((4-methyl-5-oxo-5-(4-(4-(quinoxalin-2-yl)-1H-pyrazol-1-yl)piperidin-1-yl)pentyl)amino)iaoindoline-1,3-dione]: the IC50 in experiment [1] (setting [3]), in experiment [1] (setting [4]), in experiment [2] (setting [5]) and in experiment [2] (setting [6]) was over 1000 nM each time.

For the molecule `CC(C)(CCCNc1ccc2c(c1)C(=O)N(C1CCC(=O)NC1=O)C2=O)C(=O)N1CCC(n2cc(-c3cnc4ccccc4n3)cn2)CC1` (centres unmarked) [GS-139, 5-((4,4-Dimethyl-5-oxo-5-(4-(4-(quinoxalin-2-yl)-1H-pyrazol-1-yl)piperidin-1-yl)pentyl)amino)-2-(2,6-dioxopiperidin-3-yl)isoindoline-1,3-dione], the IC50 in experiment [1] (setting [3]) is over 1000 nM; in experiment [1] (setting [4]), over 1000 nM; in experiment [2] (setting [5]), 100 to 1000 nM; in experiment [2] (setting [6]), 100 to 1000 nM.

For `O=C1CCC(N2Cc3cc(NCCCC4CC(n5cc(-c6cnc7ccccc7n6)cn5)C4)ccc3C2=O)C(=O)N1` (centres unmarked) [GS-140, 3-(1-Oxo-5-((3-(3-(4-(quinoxalin-2-yl)-1H-pyrazol-1-yl)cyclobutyl)propyl)amino)isoindolin-2-yl)piperidine-2,6-dione], the IC50 in experiment [1] (setting [3]) was over 1000 nM; in experiment [1] (setting [4]), over 1000 nM; in experiment [2] (setting [5]) it was 10 to 100 nM; in experiment [2] (setting [6]) it was 100 to 1000 nM.

In the case of `O=C1CCC(N2C(=O)c3ccc(NCCCC4(C(=O)N5CCC(n6cc(-c7cnc8ccccc8n7)cn6)CC5)CC4)cc3C2=O)C(=O)N1` (centres unmarked) [GS-141, 2-(2,6-Dioxopiperidin-3-yl)-5-((3-(1-(4-(4-(quinoxalin-2-yl)-1H-pyrazol-1-yl)piperidine-1-carbonyl)cyclopropyl)propyl)amino)isondoline-1,3-dione], the IC50 in experiment [1] (setting [3]), in experiment [1] (setting [4]), in experiment [2] (setting [5]) and in experiment [2] (setting [6]) was over 1000 nM in each case.
